Test results from patent US8747810B2, “Compositions and methods for imaging tissues, organs and tumors” (President and Fellows of Harvard College, priority 2009, dated 2014).
Values belong to the compound of their own block, whether it stands above or below them.

Test system: B16F10 melanoma tumors
Experiment: In vivo biodistribution of 99mTc complexes in C57B16 mice bearing B16F10 melanoma tumors
Settings: for mel/blood: melanoma/blood ratio; for mel/liver: melanoma/liver ratio; for mel/lung: melanoma/lung ratio; for mel/spleen: melanoma/spleen ratio
Description: To study the tumor uptake of ^99mTc complexes, ^99mTc-Z2-^99mTc-Z4, in vivo biodistribution experiment at 1, 3, 6 hours post intra-venous injection of the ^99mTc-complex were carried out in C57B16 mice bearing B16F10 melanoma tumors. The biodistribution data including melanoma/nontumor (M/NT) ratios for selected organs are summarized in Table 2 as percentage injected dose per gram (% ID/g) (Table 2). […] This is due to washout from no-tumor organs and increased retention in the tumor.

[1] = 3 h postinjection, listed as 99mTc-Z2

Eyes (1 h postinjection): 13.57 ± 2.1 % ID/g
blood (1 h postinjection): 0.41 ± 0.08 % ID/g
brain (1 h postinjection): 0.13 ± 0.03 % ID/g
heart (1 h postinjection): 0.62 ± 0.10 % ID/g
kidney (1 h postinjection): 3.50 ± 0.95 % ID/g
liver (1 h postinjection): 10.28 ± 2.9 % ID/g
lung (1 h postinjection): 1.29 ± 0.36 % ID/g
melanoma (tumor uptake) (1 h postinjection): 8.52 ± 0.08 % ID/g
muscle (1 h postinjection): 0.36 ± 0.06 % ID/g
spleen (1 h postinjection): 0.90 ± 0.22 % ID/g
melanoma (tumor uptake) (1 h postinjection, listed as 99mTc-Z2): 8.52 % ID/g
mel/blood (1 h postinjection): 16.49 ± 6.7
mel/liver (1 h postinjection): 0.64 ± 0.21
mel/lung (1 h postinjection): 4.93 ± 1.13
mel/spleen (1 h postinjection): 7.94 ± 2.79
Eyes (3 h postinjection): 13.55 ± 2.49 % ID/g
blood (3 h postinjection): 0.22 ± 0.02 % ID/g
brain (3 h postinjection): 0.06 ± 0.01 % ID/g
heart (3 h postinjection): 0.22 ± 0.02 % ID/g
kidney (3 h postinjection): 1.64 ± 0.15 % ID/g
liver (3 h postinjection): 3.32 ± 0.67 % ID/g
lung (3 h postinjection): 0.49 ± 0.03 % ID/g
melanoma (tumor uptake) (3 h postinjection): 7.56 ± 1.69 % ID/g
muscle (3 h postinjection): 0.11 ± 0.01 % ID/g
spleen (3 h postinjection): 0.93 ± 0.78 % ID/g
melanoma (tumor uptake) [1]: 7.56 % ID/g
mel/blood (3 h postinjection): 34.80 ± 10.2
mel/liver (3 h postinjection): 2.29 ± 0.30
mel/liver [1]: 2.29
mel/lung (3 h postinjection): 15.48 ± 3.91
mel/spleen (3 h postinjection): 17.28 ± 10.2
Eyes (6 h postinjection): 8.89 ± 1.55 % ID/g
blood (6 h postinjection): 0.12 ± 0.02 % ID/g
brain (6 h postinjection): 0.03 ± 0.01 % ID/g
heart (6 h postinjection): 0.10 ± 0.02 % ID/g
kidney (6 h postinjection): 0.84 ± 0.08 % ID/g
liver (6 h postinjection): 3.10 ± 0.31 % ID/g
lung (6 h postinjection): 0.31 ± 0.03 % ID/g
melanoma (tumor uptake) (6 h postinjection): 5.39 ± 0.36 % ID/g
muscle (6 h postinjection): 0.04 ± 0.01 % ID/g
spleen (6 h postinjection): 1.19 ± 0.6 % ID/g
melanoma (tumor uptake) (6 h postinjection, listed as 99mTc-Z2): 3.71 % ID/g
mel/blood (6 h postinjection): 43.14 ± 4.9
mel/liver (6 h postinjection): 1.71 ± 0.13
mel/lung (6 h postinjection): 16.9 ± 1.41
mel/spleen (6 h postinjection): 5.10 ± 2.59
tumor retention (in words) (over time): significant tumor retention
SMILES: O=C1C[S][99Tc-]23(=[O])[S]CC[N+]2(CCN2CCCCC2)CC[N]13 (stereo not drawn) [Tc-Z2]

Eyes (1 h postinjection): 4.85 ± 0.63 % ID/g
blood (1 h postinjection): 0.35 ± 0.11 % ID/g
brain (1 h postinjection): 0.08 ± 0.02 % ID/g
heart (1 h postinjection): 0.49 ± 0.11 % ID/g
kidney (1 h postinjection): 2.62 ± 1.50 % ID/g
liver (1 h postinjection): 17.75 ± 2.56 % ID/g
lung (1 h postinjection): 2.08 ± 0.60 % ID/g
melanoma (tumor uptake) (1 h postinjection): 2.36 ± 0.25 % ID/g
muscle (1 h postinjection): 0.38 ± 0.11 % ID/g
spleen (1 h postinjection): 3.19 ± 1.05 % ID/g
mel/blood (1 h postinjection): 7.49 ± 2.79
mel/liver (1 h postinjection): 0.14 ± 0.03
mel/lung (1 h postinjection): 1.26 ± 0.57
mel/spleen (1 h postinjection): 0.85 ± 0.44
Eyes (3 h postinjection): 4.72 ± 0.62 % ID/g
blood (3 h postinjection): 0.10 ± 0.02 % ID/g
brain (3 h postinjection): 0.01 ± 0.00 % ID/g
heart (3 h postinjection): 0.14 ± 0.02 % ID/g
kidney (3 h postinjection): 1.02 ± 0.13 % ID/g
liver (3 h postinjection): 12.58 ± 1.4 % ID/g
lung (3 h postinjection): 0.87 ± 0.35 % ID/g
melanoma (tumor uptake) (3 h postinjection): 2.74 ± 0.24 % ID/g
muscle (3 h postinjection): 0.09 ± 0.02 % ID/g
spleen (3 h postinjection): 3.16 ± 0.46 % ID/g
mel/blood (3 h postinjection): 26.65 ± 4.9
mel/liver (3 h postinjection): 0.22 ± 0.03
mel/lung (3 h postinjection): 3.24 ± 1.79
mel/spleen (3 h postinjection): 0.87 ± 0.17
SMILES: O=C1C[S][99Tc-]23(=[O])[S]CC[N+]2(CCCN2CCOCC2)CC[N]13 (stereo not drawn) [Tc-Z3]
